Laboratory results from patent US20100311729A1, “Substituted imidazopyridazines and pyrrolopyrimidines as lipid kinase inhibitors” (priority 2007, published 2010).
pIC50: −log10 of the molar value.

What was measured:
Format in all cases: biochemical
PI3K delta = target: T1, PI3K delta (Homo sapiens, UniProt O00329); test: PI3 kinase assay (Kinase-Glo luminescence), PI3K delta; settings: Enzymatic Data; read-out: PI3K delta IC50 [umol]
T1 construct: for the full-length p110-d subunit are generated and fused by overlapping PCR; His tag (C); made in house; host or cells: baculovirus; Tn5 (Trichoplusia ni) or TiniPro insect cells
Method: (§1) In a more preferred assay, the kinase reaction is performed in a final volume of 10 μL per well of a low volume non binding CORNING, 384 well black plate (Cat. No. #3676). The final concentrations of ATP and phosphatidyl inositol (PI) in the assay are 1 μM and 10 μg/mL respectively. The reaction is started by the addition of ATP.
(§2) The components of the assay are added per well as follows:
(§3) 50 nL test compounds in 90% DMSO per well, in columns 1-20, 8 concentrations (1/3 and 1/3.33 serial dilution step) in single. • Low control: 50 nL of 90% DMSO in half the wells of columns 23-24 (0.45% in final). • High control: 50 nL of reference compound (e.g. compound of Example 7 in WO 2006/122806, incorporated by reference hereinin that regard) in the other half of columns 23-24 (2.5 μM in final). • Standard: 50 nL of reference compound as just mentioned diluted as the test compounds in columns 21-22 • 20 mL ‘buffer’ are prepared per assay: • 200 μL of 1M TRIS HCl pH7.5 (10 mM in final) • 60 μL of 1M MgCl2 (3 mM in final) • 500 μL of 2M NaCl (50 mM in final) • 100 μL of 10% CHAPS (0.05% in final) • 200 μL of 100 mM DTT (1 mM in final) • 18.94 mL of nanopure water • 10 mL ‘PI’ are prepared per assay: • 200 μL of 1 mg/ml L-alpha-Phosphatidylinositol (Liver Bovine, Avanti Polar Lipids Cat. No. 840042C MW=909.12) prepared in 3% OctylGlucoside (10 μg/ml in final) • 9.8 mL of ‘buffer’ • 10 mL ‘ATP’ are prepared per assay: • 6.7 μL of 3 mM stock of ATP giving a final concentration of 1 μM per well • 10 mL of ‘buffer’ • 2.5 mL of each PI3K construct are prepared per assay in ‘PI’ with the following final concentration : • 10 nM PI3K alfa B-1075 • 25 nM beta BV-949 • 10 nM delta BV-1060 • 150 nM gamma BV-950 • 5 μL of ‘PI/PI3K’ are added per well. • 5 μl ‘ATP’ are added per well to start the reaction. • The plates are then incubated at room temperature for 60 minutes (alfa, beta, delta) or 120 minutes (gamma). • The reaction is terminated by the addition of 10 μL Kinase-Glo (Promega Cat. No. #6714). • The assay plates are read after 10 minutes in Synergy 2 reader (BioTek, Vermont USA) with an integration time of 100 milliseconds and sensitivity set to 191. • Output : The High control is around 60'000 counts and the Low control is 30'000 or lower • This luminescence assay gives a useful Z′ ratio between 0.4 and 0.7
(§4) […] is determined by a four parameter curve fitting routine that comes aloneg with “excel fit”. A 4 Parameter logistic equation is used to calculate IC50 values (IDBS XLfit) of the percentage inhibition of each compound at 8 concentrations (usually 10, 3.0, 1.0, 0.3, 0.1, 0.030, 0.010 and […]). Alternatively, IC50 values are calculated using idbsXLfit model 204, which is a 4 parameter logistic model.
(§5) Testing with the following kinases in the test system mentioned above, with the kinases given in the following tables, the following IC 50 data can be obtained: […]

PI3K alfa = target: T2, PI3K alfa (Homo sapiens, UniProt P42336); test: PI3 kinase assay (Kinase-Glo luminescence), PI3K alfa; settings: Enzymatic Data; read-out: PI3K alfa IC50 [umol]
T2 construct: for the p110-a subunit (with a deletion of the first 20 amino acids); His tag (C); made in house; host or cells: baculovirus; Tn5 (Trichoplusia ni) or TiniPro insect cells
Method: as §1, §2, §3, §4, §5

PI3K beta = target: T3, PI3K beta (Homo sapiens, UniProt P42338); test: PI3 kinase assay (Kinase-Glo luminescence), PI3K beta; settings: Enzymatic Data; read-out: PI3K beta IC50 [umol]
T3 construct: for the full-length p110-b subunit are generated and fused by overlapping PCR; His tag (C); made in house; host or cells: baculovirus; Tn5 (Trichoplusia ni) or TiniPro insect cells
Method: as §1, §2, §3, §4, §5

PI3K gamma = target: T4, PI3K gamma (Homo sapiens, UniProt P48736); test: PI3 kinase assay (Kinase-Glo luminescence), PI3K gamma; settings: Enzymatic Data; read-out: PI3K gamma IC50 [umol]
T4 construct: PI3Kγ BV-950 p110g(D144aa)-C-Term His Tag; His tag (C); made in house; host or cells: construct from the Roger Williams lab (MRC LMB) in pVL1393; baculovirus; Tn5 (Trichoplusia ni) or TiniPro insect cells
Method: as §1, §2, §4

T3 sequence (P42338 with tags, fused parts or gaps limits assumed): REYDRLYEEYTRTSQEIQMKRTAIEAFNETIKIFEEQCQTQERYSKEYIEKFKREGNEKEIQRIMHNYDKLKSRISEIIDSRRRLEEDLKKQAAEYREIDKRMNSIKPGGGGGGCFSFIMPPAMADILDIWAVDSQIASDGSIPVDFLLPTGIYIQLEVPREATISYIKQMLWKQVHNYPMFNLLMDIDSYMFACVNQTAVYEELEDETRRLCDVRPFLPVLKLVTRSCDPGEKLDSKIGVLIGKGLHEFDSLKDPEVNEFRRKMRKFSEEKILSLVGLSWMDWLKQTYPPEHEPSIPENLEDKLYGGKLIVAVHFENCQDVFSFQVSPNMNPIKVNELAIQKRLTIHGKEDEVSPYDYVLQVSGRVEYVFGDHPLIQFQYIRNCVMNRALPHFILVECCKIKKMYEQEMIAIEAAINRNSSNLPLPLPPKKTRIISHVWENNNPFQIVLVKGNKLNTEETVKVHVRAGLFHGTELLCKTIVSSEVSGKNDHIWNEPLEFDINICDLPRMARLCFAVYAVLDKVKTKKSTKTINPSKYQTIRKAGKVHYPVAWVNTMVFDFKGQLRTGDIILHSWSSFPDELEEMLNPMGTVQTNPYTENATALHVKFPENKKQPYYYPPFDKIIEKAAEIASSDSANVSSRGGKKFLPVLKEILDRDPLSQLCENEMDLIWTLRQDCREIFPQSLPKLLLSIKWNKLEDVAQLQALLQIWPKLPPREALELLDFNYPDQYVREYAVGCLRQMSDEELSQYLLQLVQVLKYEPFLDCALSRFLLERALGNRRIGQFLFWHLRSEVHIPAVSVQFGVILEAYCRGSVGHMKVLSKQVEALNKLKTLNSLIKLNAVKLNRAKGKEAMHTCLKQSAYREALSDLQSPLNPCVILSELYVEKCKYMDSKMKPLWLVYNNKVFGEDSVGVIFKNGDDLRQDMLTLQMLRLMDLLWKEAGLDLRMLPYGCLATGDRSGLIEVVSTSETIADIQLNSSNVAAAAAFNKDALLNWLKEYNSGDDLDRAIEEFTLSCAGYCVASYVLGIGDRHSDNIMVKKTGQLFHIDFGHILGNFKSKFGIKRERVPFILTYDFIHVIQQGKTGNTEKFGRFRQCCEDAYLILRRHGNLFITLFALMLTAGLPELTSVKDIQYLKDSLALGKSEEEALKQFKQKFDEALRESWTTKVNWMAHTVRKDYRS
T4 sequence (P48736 144-1102 limits assumed): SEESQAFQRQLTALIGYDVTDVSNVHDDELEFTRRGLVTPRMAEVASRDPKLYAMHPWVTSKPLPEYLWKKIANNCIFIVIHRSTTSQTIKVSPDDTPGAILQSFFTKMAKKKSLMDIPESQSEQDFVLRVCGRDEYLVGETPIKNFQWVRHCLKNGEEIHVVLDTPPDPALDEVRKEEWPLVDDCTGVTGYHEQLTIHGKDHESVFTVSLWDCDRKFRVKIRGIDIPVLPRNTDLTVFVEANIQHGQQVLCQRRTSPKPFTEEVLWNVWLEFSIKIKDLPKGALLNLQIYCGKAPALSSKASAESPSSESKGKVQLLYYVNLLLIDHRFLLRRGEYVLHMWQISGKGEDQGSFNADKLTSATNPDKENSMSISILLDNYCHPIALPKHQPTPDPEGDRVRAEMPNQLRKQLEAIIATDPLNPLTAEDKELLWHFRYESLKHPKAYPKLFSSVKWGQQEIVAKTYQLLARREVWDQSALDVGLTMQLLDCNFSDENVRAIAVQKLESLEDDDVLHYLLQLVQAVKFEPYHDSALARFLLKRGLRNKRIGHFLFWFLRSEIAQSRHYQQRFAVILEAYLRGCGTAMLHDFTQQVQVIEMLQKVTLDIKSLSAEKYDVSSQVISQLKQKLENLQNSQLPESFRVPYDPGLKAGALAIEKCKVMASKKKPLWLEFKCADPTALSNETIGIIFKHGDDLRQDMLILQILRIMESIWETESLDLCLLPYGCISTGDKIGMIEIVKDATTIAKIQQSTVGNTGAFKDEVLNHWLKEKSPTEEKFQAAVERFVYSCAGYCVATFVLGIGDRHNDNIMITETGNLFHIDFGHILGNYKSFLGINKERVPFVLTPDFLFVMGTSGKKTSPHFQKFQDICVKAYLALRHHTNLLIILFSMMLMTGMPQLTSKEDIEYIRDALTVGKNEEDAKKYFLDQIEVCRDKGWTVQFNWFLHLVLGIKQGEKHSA
T2 sequence (P42336 with tags, fused parts or gaps limits assumed): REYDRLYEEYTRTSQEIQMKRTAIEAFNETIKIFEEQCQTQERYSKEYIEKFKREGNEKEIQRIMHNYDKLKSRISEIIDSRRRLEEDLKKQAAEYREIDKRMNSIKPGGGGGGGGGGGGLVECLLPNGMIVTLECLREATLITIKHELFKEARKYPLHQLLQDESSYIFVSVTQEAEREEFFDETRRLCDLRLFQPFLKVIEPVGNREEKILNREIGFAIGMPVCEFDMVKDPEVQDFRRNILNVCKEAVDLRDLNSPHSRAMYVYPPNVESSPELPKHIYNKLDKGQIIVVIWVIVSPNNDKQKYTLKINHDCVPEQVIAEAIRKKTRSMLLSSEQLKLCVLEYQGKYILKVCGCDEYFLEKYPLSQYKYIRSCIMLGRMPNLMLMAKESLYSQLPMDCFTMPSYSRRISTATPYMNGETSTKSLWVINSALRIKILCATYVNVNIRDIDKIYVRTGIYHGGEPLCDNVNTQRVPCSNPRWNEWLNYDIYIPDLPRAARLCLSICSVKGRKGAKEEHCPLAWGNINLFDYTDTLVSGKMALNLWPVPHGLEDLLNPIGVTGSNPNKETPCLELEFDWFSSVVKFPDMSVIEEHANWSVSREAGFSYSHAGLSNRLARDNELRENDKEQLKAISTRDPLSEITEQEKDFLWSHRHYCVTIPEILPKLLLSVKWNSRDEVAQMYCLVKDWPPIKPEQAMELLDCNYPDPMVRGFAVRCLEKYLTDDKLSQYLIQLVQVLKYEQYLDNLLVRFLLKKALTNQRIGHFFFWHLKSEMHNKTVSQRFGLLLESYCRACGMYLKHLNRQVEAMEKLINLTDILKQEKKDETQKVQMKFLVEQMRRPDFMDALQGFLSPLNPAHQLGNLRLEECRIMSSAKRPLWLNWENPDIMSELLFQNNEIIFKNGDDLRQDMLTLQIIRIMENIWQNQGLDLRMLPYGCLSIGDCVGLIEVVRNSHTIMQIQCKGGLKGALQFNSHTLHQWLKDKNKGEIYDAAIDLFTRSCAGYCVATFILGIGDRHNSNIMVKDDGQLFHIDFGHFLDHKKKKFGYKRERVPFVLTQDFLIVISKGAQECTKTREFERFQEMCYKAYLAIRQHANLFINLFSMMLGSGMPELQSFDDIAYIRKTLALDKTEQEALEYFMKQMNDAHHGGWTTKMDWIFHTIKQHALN
T1 sequence (O00329 with tags, fused parts or gaps limits assumed): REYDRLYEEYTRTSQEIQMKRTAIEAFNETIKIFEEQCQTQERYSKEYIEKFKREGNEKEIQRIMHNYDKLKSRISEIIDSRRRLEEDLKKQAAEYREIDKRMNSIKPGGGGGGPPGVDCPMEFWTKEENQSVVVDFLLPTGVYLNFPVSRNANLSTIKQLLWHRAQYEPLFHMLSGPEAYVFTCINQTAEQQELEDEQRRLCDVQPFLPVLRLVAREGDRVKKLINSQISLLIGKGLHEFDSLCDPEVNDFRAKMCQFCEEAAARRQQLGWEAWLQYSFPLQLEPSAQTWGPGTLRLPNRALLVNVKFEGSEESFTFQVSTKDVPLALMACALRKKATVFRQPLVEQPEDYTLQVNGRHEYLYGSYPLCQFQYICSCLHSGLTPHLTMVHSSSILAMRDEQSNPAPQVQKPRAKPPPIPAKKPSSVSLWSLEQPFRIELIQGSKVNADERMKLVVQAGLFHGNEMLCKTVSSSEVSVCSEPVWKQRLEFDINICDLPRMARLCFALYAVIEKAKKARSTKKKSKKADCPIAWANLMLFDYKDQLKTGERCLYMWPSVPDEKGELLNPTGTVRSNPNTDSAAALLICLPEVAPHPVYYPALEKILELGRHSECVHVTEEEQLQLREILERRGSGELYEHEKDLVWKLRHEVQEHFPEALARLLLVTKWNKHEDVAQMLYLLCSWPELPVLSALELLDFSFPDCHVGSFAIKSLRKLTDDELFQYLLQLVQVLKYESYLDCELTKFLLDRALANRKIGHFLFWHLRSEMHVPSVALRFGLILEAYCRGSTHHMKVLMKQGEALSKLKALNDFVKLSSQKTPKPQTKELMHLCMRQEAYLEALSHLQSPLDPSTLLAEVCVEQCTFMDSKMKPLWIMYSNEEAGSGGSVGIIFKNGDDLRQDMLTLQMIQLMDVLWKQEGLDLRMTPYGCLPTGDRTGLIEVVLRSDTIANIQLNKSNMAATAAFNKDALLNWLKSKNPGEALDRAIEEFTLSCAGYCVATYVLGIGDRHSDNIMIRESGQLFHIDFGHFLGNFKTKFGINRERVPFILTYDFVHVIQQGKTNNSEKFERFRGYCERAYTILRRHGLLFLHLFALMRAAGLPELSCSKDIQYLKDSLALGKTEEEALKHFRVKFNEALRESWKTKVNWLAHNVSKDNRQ

pIC50 (PI3K delta)	pIC50 (PI3K alfa)	pIC50 (PI3K beta)	pIC50 (PI3K gamma)	SMILES
5.61	5.95	5.17	< 5.04	COc1ccc(-c2ccc3ncc(-c4cnc(N)c(C(F)(F)F)c4)n3n2)cc1F [Example 48, 5-[6-(3-Fluoro-4-methoxy-phenyl)-imidazo [1,2-b]pyridazin-3-yl]-3-trifluoro-methyl-pyridin-2-ylamine]
5.32	5.79	< 5.04	5.22	COc1ccc(-c2ccc3ncc(-c4cnc5[nH]ccc5c4)n3n2)cc1F [Example 49, 6-(3-Fluoro-4-methoxy-phenyl)-3-(1H-pyrrolo [2,3-b]pyridin-5-yl)-imidazo [1,2-b] pyridazine]
6.00	6.78	5.66	5.56	COC(=O)NCCCOc1ccc(-c2ccc3ncc(-c4cnc(N)c(C(F)(F)F)c4)n3n2)cc1OC [Example 50, (3-{4-[3-(6-Amino-5-trifluoromethyl-pyridin-3-yl)-imidazo[1,2-b]pyridazin-6yl]-2-methoxy-phenoxy}-propyl)-carbamic acid methyl ester]
6.05	7.04	5.86	5.22	COc1cc(-c2ccc3ncc(-c4cnc(N)c(C(F)(F)F)c4)n3n2)ccc1OCCCNC(=O)C(C)C [Example 51]
6.53	7.66	6.44	5.65	COc1cc(-c2ccc3ncc(-c4cnc(N)c(C(F)(F)F)c4)n3n2)ccc1OCCCNC(C)=O [Example 52, N-(3-{4-[3-(6-Amino-5-trifluoro-methyl-pyridin-3-yl)-imidazo [1,2-b]pyridazin-6-yl]-2-methoxy-phenoxy}-propyl)-acetamide]
6.40	6.56	5.91	5.97	COc1ccc(-c2ccc3ncc(-c4cncc(C(F)(F)F)c4)n3n2)cc1OC [Example 53, 6-(3,4-Di-methoxy-phenyl)-3-(5-trifluoro-methyl-pyridin-3-yl)-imidazo [1,2-b] pyridazine]

More lines, now with the values behind:

SMILES	pIC50 (PI3K delta)	pIC50 (PI3K alfa)	pIC50 (PI3K beta)	pIC50 (PI3K gamma)
CNS(=O)(=O)c1ccc(-c2cnc3ccc(-c4cnc(N)c(C(F)(F)F)c4)nn23)cc1 [Example 35, 4-[6-(6-Amino-5-trifluoro-methyl-pyridin-3-yl)-imidazo [1,2-b]pyridazin-3-yl]-N-methyl-benzene-sulfon-amide]	6.77	6.91	6.73	< 5.04
COc1cc(-c2cnc3ccc(-c4cnc(N)c(C(F)(F)F)c4)nn23)ccc1OCCCNC(=O)OC(C)(C)C [Example 36, (3-{4-[6-(6-Amino-5-trifluoro-methyl-pyridin-3-yl)-imidazo [1,2-b]pyridazin-3-yl]-2-methoxy-phenoxy}-propyl)-carbamic acid tert-butyl ester]	6.48	6.59	5.67	5.32
COc1cc(-c2cnc3ccc(-c4cnc(N)c(C(F)(F)F)c4)nn23)ccc1OCCCN [Example 37, 5-{3-[4-(3-Amino-propoxy)-3-methoxy-phenyl]-imidazo[1,2-b]pyridazin-6-yl}-3-trifluoro-methyl-pyridin-2-ylamine]	7.14	6.96	7.27	5.95
COc1ccc(-c2ccc3ncc(-c4cnc(N)cn4)n3n2)cc1OC [Example 38, 5-[6-(3,4-Dimethoxy-phenyl)-imidazo [1,2-b]pyridazin-3-yl]-pyrazin-2-ylamine]	6.92	7.04	6.65	5.77
Nc1ccc(-c2cnc3ccc(-c4cnc(N)c(C(F)(F)F)c4)nn23)cn1 [Example 39, 5-{3-(6-Amino-pyridin-3-yl)-imidazo [1,2-b]pyridazin-6-yl]-3-trifluoro-methyl-pyridin-2-ylamine]	7.40	7.27	7.72	5.89
CC(C)(C)OC(=O)NCCCOc1ccc(-c2cnc3ccc(-c4cnc(N)c(C(F)(F)F)c4)nn23)cc1OC(F)(F)F [Example 40, (3-{4-[6-(6-Amino-5-trifluoro-methyl-pyridin-3-yl)-imidazo [1,2-b]pyridazin-3-yl]-2-trifluoro-methoxy-phenoxy}-propyl)-carbamic acid tert-butylester]	< 5.04	5.16	< 5.04	< 5.04
Nc1ncc(-c2ccc3ncc(-c4cnc5[nH]ccc5c4)n3n2)cc1C(F)(F)F [Example 41, 5-[3-(1H- Pyrrolo [2,3-b]pyridin-5-yl)-imidazo [1,2-b]pyridazin-6-yl]-3-trifluoro-methyl-pyridin-2-ylamine]	6.68	6.58	6.67	5.79
COc1ccc(-c2cnc3ccc(-c4cnc5[nH]ccc5c4)nn23)cc1OC [Example 42, 3-(3,4-Dimethoxy-phenyl)-6-(1H-pyrrolo[2,3-b]pyridin-5-yl)-imidazo [1,2-b] pyridazine]	6.20	6.20	< 5.04	< 5.04
NCCCOc1ccc(-c2cnc3ccc(-c4cnc(N)c(C(F)(F)F)c4)nn23)cc1OC(F)(F)F [Example 43, 5-{3-[4-(3-Amino-propoxy)-3-trifluoro-methoxy-phenyl]-imidazo[1,2-b]pyri-dazin-6-yl}-3-trifluoro-methyl-pyridin-2-ylamine]	6.39	6.33	6.28	5.07
COc1ccc(-c2ccc3ncc(-c4ccc(NS(C)(=O)=O)cc4)n3n2)cc1OC [Example 44, N-{4-[6-(3,4-Dimethoxy-phenyl)-imidazo [1,2-b]pyridazin-3-yl]-phenyl}-methane-sulfonamide]	6.47	6.53	5.65	5.46
CS(=O)(=O)Nc1ccc(-c2cnc3ccc(-c4cnc(N)c(C(F)(F)F)c4)nn23)cc1 [Example 45, N-{4-[6-(6-Amino-5-trifluoro-methyl-pyridin-3-yl)-imidazo [1,2-b]pyridazin-3-yl]-phenyl}-methane-sulfonamide]	6.55	6.81	6.42	5.15
COc1ccc(-c2ccc3ncc(-c4cnc(N)c(C(F)(F)F)c4)n3n2)cc1 [Example 46, 5-[6-(4-Methoxy-phenyl)-imidazo[1,2 b]pyridazin-3-yl]-3 trifluoro-methyl-pyridin-2-ylamine]	5.53	5.79	5.20	< 5.04
COc1ccc(-c2ccc3ncc(-c4cnc5[nH]ccc5c4)n3n2)cc1 [Example 47, 6-(4-Methoxy-phenyl)-3-(1H-pyrrolo [2,3-b]pyridin-5-yl)-imidazo [1,2-b] pyridazine]	5.42	5.57	< 5.04	< 5.04
